Experimental data as given in patent US20240067651A1 (Biohaven Therapeutics Ltd., priority 2019, published 2024).

What was measured:
[1] = Stability in Simulated Intestinal Fluid (SIF); type: in vitro ADME; parameters: key: % parent compound remaining relative to 0-minute sample
In short: (§1)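 Each compound is spiked to a final 2 μg/mL into SGF with pepsin (pH 1.2) and into SIF with pancreatin (pH 6.8). Samples shake at 37° C, aliquots are taken between 0 and 60 minutes, precipitated with acetonitrile and analysed by LC-MS/MS. Degradation half-life is derived from the natural-log plot where time points allow.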

Caco-2 monolayer = test: Caco-2 Permeability Assay; type: in vitro ADME, human
In short: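 Bidirectional transport at 37 °C for 90 min, 10 μM donor concentration, with or without Pgp inhibitor, across 21-day Caco-2 monolayers with TEER >600 […] in HEPES-buffered HBSS, pH 7.4. LC-MS/MS of donor and receiver samples gives Papp, B→A/A→B efflux ratio and mass recovery.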

[2] = Stability in Simulated Gastric Fluid (SGF); type: in vitro ADME; parameters: key: % parent compound remaining relative to 0-minute sample
In short: as §1

Plasma Stability = type: in vitro ADME, human
In short: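 Parent compound quantified by LC-MS/MS after acetonitrile precipitation, reported as percent of control remaining (triplicate). Incubation: 1 hour, 37° C, fresh human plasma, compound at 1 μM.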

[3] = simulated intestinal fluid, remaining at 1 h
[4] = simulated gastric fluid, remaining at 1 h
[5] = % remaining at 1 h in simulated intestinal fluid
[6] = % remaining at 1 h in simulated gastric fluid
[7] = % remaining at 1 h in human plasma
[8] = bare number, unit or time not given, the 15th table Examples 204-207
[9] = % remaining after 1 h in simulated intestinal fluid
[10] = % remaining after 1 h in simulated gastric fluid
[11] = % remaining after 1 h in human plasma

Compound	SIF [1, 3]	Caco-2 Papp (Caco-2 monolayer; Caco-2 monolayer)	SGF [2, 4]	human Plasma stability (Plasma Stability; human plasma, remaining at 1 h)	further results
trifluoroacetic acid ({4-oxo-1-[2-(propan-2-yloxy)ethyl]-1H,4H,5H-pyrrolo[3,2-d]pyrimidin-2-yl}sulfanyl)methyl N-[2-(2-aminoethoxy)ethyl]carbamate [Example 374]	94% remaining	9.06 ×10⁻⁶ cm/s	75% remaining	82% remaining	–
CC(C)OCCn1c(=S)[nH]c(=O)c2c1ccn2COC(=O)[C@@H]1CCN(C(=O)OC(C)(C)C)C1 [Example 129, 1-tert-butyl 3-{4-oxo-1-[2-(propan-2-yloxy)ethyl]-2-sulfanylidene-1H,2H,3H,4H,5H-pyrrolo[3,2-d]pyrimidin-5-yl} methyl (3R)-pyrrolidine-1,3-dicarboxylate]	–	12.1 ×10⁻⁶ cm/s	–	–	SIF [1, 5]: 21% remaining; SGF [2, 6]: 84% remaining; human Plasma stability (Plasma Stability; [7]): 1% remaining
(2R)-2-amino-4-(methylsulfanyl)-N-[2-(2-{[{{4-oxo-1-[2-(propan-2-yloxy)ethyl]-2-sulfanylidene-1H,2H,3H,4H,5H-pyrrolo[3,2-d]pyrimidin-5-yl}methoxy)carbonyl]oxy}ethoxy)eth-yl]butanamide; trifluoroacetic acid [Example 390]	64% remaining	0.49 ×10⁻⁶ cm/s	100% remaining	0% remaining	–
tert-butyl N-[2-(2-{[{{4-oxo-1-[2-(propan-2-yloxy)ethyl]-2-sulfanylidene-1H,2H,3H,4H,5H-pyrrolo[3,2-d]pyrimidin-5-yl}methoxy)carbonyl]amino}ethoxy) ethyl]carbamate [Example 372]	60% remaining	11.7 ×10⁻⁶ cm/s	85% remaining	0% remaining	–
5-{[2-({[(5-{[(2S)-2-{[(tert-butoxy)carbonyl]amino}-4-methylpentanoyl]oxy}penta-noyl)oxy]methyl}sulfanyl)-4-oxo-1-[2-(propan-2-yloxy)ethyl]-1H,4H,5H-pyrrolo[3,2-d]pyrimidin-5-yl]methoxy}-5-oxopentyl (2S)-2-{[(tert-butoxy)carbonyl]amino}-4-methylpentanoate [Example 343]	–	–	–	–	SIF ([1]; % remaining @ 1 h): 29% remaining; Caco-2 Papp (Caco-2 monolayer; Caco-2): 4.67 ×10⁻⁶ cm/s; SGF ([2]; % remaining @ 1 h): 82% remaining; human Plasma stability (Plasma Stability; % remaining @ 1 h): 1% remaining
CCCCCCCCOC(=O)OCSc1nc(=O)c2c(ccn2COC(=O)OCCCCCCCC)n1CCOC(C)C [Example 207, octyl {2-[{{[(octyloxy)carbon-yl]oxy}methyl)sulfanyl]-4-oxo-1-[2-(propan-2-yloxy)ethyl]-1H,4H,5H-pyrrolo[3,2-d]pyrimidin-5-yl} methyl carbonate]	–	–	–	–	SIF [1, 8]: 29; Caco-2 Papp (Caco-2 monolayer; Caco-2 monolayer, the 15th table): 0.267 ×10⁻⁶ cm/s; SGF [2, 8]: 90; human Plasma stability (Plasma Stability; % remaining at 1 h in human plasma, the 15th table): 92% remaining
CC(C)OCCn1c(=S)[nH]c(=O)c2c1ccn2COC(=O)CCCCNC(=O)[C@@H]1CCC(=O)N1C(=O)OCc1ccccc1.O=C(O)C(F)(F)F [Example 16, trifluoroacetic acid benzyl (5S)-2-oxo-5-{[5-oxo-5-({4-oxo-1-[2-(propan-2-yloxy)ethyl]-2-sulfanylidene-1H,2H,3H,4H,5H-pyrrolo[3,2-d]pyrimidin-5-yl}methoxy)pentyl]carbamoyl} pyrrolidine-1-carboxylate]	–	0.903 ×10⁻⁶ cm/s	–	–	SIF [1, 5]: 93% remaining; SGF [2, 6]: 96% remaining; human Plasma stability (Plasma Stability; [7]): 21% remaining
{4-oxo-1-[2-(propan-2-yloxy)ethyl]-2-sulfanylidene-1H,2H,3H,4H,5H-pyrrolo [3,2-d]pyrimidin-5-yl}methyl 2-[(2S)-2-(benzoyloxy)-N,3-dimethylbutanamido]acetate [Example 401]	–	0.43 ×10⁻⁶ cm/s	–	–	SIF [1, 9]: 8% remaining; SGF [2, 10]: 90% remaining; human Plasma stability (Plasma Stability; [11]): 0% remaining
5-{[({2-[2-(2-{[(tert-butoxy)carbonyl]amino}ethoxy)eth-oxy]ethoxy}carbonyl)oxy]methyl}-1-[2-(propan-2-yloxy)ethyl]-2-sulfanylidene-1H,2H,3H,4H,5H-pyrrolo[3,2-d]pyrimidin-4-one [Example 370]	35% remaining	1.54 ×10⁻⁶ cm/s	99% remaining	1% remaining	–
CC(C)OCCn1c(SCOC(=O)N(C)CCOCCNC(=O)[C@H](N)C(C)C)nc(=O)c2[nH]ccc21.O=C(O)C(F)(F)F [Example 391, trifluoroacetic acid ({4-oxo-1-[2-(propan-2-yloxy)ethyl]-1H,4H,5H-pyrrolo[3,2-d]pyrimidin-2-yl}sulfanyl) methyl N-(2-{2-[(2R)-2-amino-3-methylbutanamido]ethoxy}ethyl)-N-methylcarbamate]	70% remaining	3.65 ×10⁻⁶ cm/s	96% remaining	1% remaining	–
CSCC[C@H](N)C(=O)NCCC(=O)OCn1ccc2c1c(=O)[nH]c(=S)n2CCOC(C)C.O=C(O)C(F)(F)F [Example 32, trifluoroacetic acid {4-oxo-1-[2-(propan-2-yloxy)ethyl]-2-sulfanylidene-1H,2H,3H,4H,5H-pyrrolo [3,2-d]pyrimidin-5-yl} methyl 3-[(2S)-2-amino-4-(methylsulfanyl)butanamido]propanoate]	–	0.147 ×10⁻⁶ cm/s	–	–	SIF [1, 5]: 33% remaining; SGF [2, 6]: 97% remaining; human Plasma stability (Plasma Stability; [7]): 17% remaining
{4-oxo-1-[2-(propan-2-yloxy)ethyl]-2-sulfanylidene-1H,2H,3H,4H,5H-pyrrolo[3,2-d]pyrimidin-5-yl}methyl 2-[2-(acetyloxy)-N-methylacetamido]acetate [Example 400]	–	0.242 ×10⁻⁶ cm/s	–	–	SIF [1, 9]: 26% remaining; SGF [2, 10]: 99% remaining; human Plasma stability (Plasma Stability; [11]): 89% remaining
tert-butyl N-[2-(2-{[(1-{4-oxo-1-[2-(propan-2-yloxy)ethyl]-2-sulfanylidene-1H,2H,3H,4H,5H-pyrrolo[3,2-d]pyrimidin-5-yl}ethoxy)carbonyl]amino}eth-oxy)ethyl]carbamate [Example 375]	99% remaining	<0.175 ×10⁻⁶ cm/s	89% remaining	99% remaining	–
COc1ccc(N(C)C(=O)OCSc2nc(=O)c3[nH]ccc3n2CCOC(C)C)cc1 [Example 254]	–	8.53 ×10⁻⁶ cm/s	–	–	SIF ([1]; simulated intestinal fluid, at 1 h): 94% remaining; SGF ([2]; simulated gastric fluid, at 1 h): 95% remaining; human Plasma stability (Plasma Stability; human plasma, at 1 h): 88% remaining
